PMC3917258, “6-Bromoisatin Found in Muricid Mollusc Extracts Inhibits Colon Cancer Cell Proliferation and Induces Apoptosis, Preventing Early Stage Tumor Formation in a Colorectal Cancer Rodent Model” (Marine Drugs, 2013)
Where “and” joins values, the source holds several entries; their conditions need not be identical. Equal entries are not always repeated.

Key:
[1] = tested on: HT29 cells; experiment: MTT cell viability assay; assay type: cell-based, human; conditions: for reduction of cell viability: relative to DMSO control, 12 h
Protocol: All media and chemicals were purchased from Sigma Aldrich (Castle Hill, NSW, Australia) unless otherwise stated. HT29 human colorectal cancer cell line (passage no. 36-42) were cultured (37 °C and 5% CO2) in Dulbecco’s Modified Eagle’s Medium (DMEM) supplemented with 4500 mg/L L-glutamine, 10% FBS, 100 U/mL Penicillin/Streptomycin and 1% Non-essential Amino Acid (100×), until the cells reached 70% confluence. The cells were harvested from flasks by trypsinization (1× Trypsin-EDTA) and were seeded (20,000 cells/well) into clear 96-well plates (Costar®, Mt Martha, VIC, Australia) for measurement of cell viability and white (opaque) 96-well plates (Interpath, Heidelberg West, VIC, Australia) for determination of apoptosis and necrosis. HT29 cells were incubated for 48 h, then the media was removed and the cells were washed with PBS. […] 1% DMSO controls were also included on each plate. Staurosporine (5 µM) for apoptosis and lysis solution (5 μL/well, Promega, Alexandria, NSW, Australia) for necrosis were added to the white plates in triplicate, as positive controls. All cells were treated for 12 h. Morphological changes in the cells were observed on an Olympus CK2 inverted optical microscope (×400 magnification) 12 h after treatment. To measure cell viability, the MTT assay was applied, which measures the reduction of MTT tetrazolium salt to formazan, as previously described. To measure necrosis and apoptosis, CytoTox-ONE Homogeneous Membrane Integrity Assay reagent (Promega) and Caspase-Glo 3/7® assay (Promega) were applied respectively, according to our previous study. These assays were all repeated in triplicate on three separate occasions (n = 3).

[2] = set-up: method as in PMID 20150770; conditions: low pH, simulated digestive fluid; cited from earlier work
[3] = Plasma liver enzymes AST, ALT, ALP (hepatotoxicity); assay type: in vivo, mice (C57BL/6J); conditions: 0.025-0.1 mg/g daily gavage two weeks, versus oil control
Protocol: (§1) To detect the early stage prevention of colon cancer, an established AARGC rodent model with injection of the carcinogen AOM was used. Synthetic 6-bromoisatin at 3 different dosages (0.025, 0.05 and 0.1 mg/g body weight) was administered to mice by daily oral gavage in 100 µL sunflower oil, containing 0.02% Vitamin E, for two weeks. The control group was gavaged with sunflower oil (containing 0.02% Vitamin E) only. After two weeks, all mice were injected with a single intraperitoneal (i.p.) injection of AOM at a dosage of 10 mg/kg bodyweight and euthanized 6 h later by cervical dislocation under anesthesia. […] The distal colon of each mouse was excised and fixed in 10% buffered formalin for 24 h and then embedded in paraffin for histological and immunohistological examination.
(§2) Blood samples (0.5–1 mL) were obtained from the mice under anesthesia by cardiac puncture at time of kill and transferred to Gribbles Veterinary Pathology laboratory, Adelaide within heparinized vacutainer tubes then centrifuged to separate into the cell layer for hematology analysis (Abbott Cell Dyn 3700 analyzer, North Ryde, NSW, Australia) and plasma for biochemistry analysis (Siemens Advia 1800 chemistry analyzer, Erlangen, Germany). The plasma levels of the liver enzymes AST, ALT and ALP were assessed as indicators of hepatotoxicity.

[4] = tested on: HT29 cells; experiment: Light microscopy of cell morphology (apoptosis); assay type: cell-based, human; conditions: 12 h
Protocol: The cells were harvested from flasks by trypsinization (1× Trypsin-EDTA) and were seeded (20,000 cells/well) into clear 96-well plates (Costar®, Mt Martha, VIC, Australia) for measurement of cell viability and white (opaque) 96-well plates (Interpath, Heidelberg West, VIC, Australia) for determination of apoptosis and necrosis. HT29 cells were incubated for 48 h, then the media was removed and the cells were washed with PBS. To treat the cells, synthetic 6-bromoisatin was dissolved in 100% dimethylsulphoxide (DMSO) then diluted in media and added to the cells at a range of concentrations from 0.1 to 0.01 mg/mL, in triplicate (final DMSO concentration of 1%). 1% DMSO controls were also included on each plate. Staurosporine (5 µM) for apoptosis and lysis solution (5 μL/well, Promega, Alexandria, NSW, Australia) for necrosis were added to the white plates in triplicate, as positive controls. All cells were treated for 12 h. Morphological changes in the cells were observed on an Olympus CK2 inverted optical microscope (×400 magnification) 12 h after treatment. To measure cell viability, the MTT assay was applied, which measures the reduction of MTT tetrazolium salt to formazan, as previously described. To measure necrosis and apoptosis, CytoTox-ONE Homogeneous Membrane Integrity Assay reagent (Promega) and Caspase-Glo 3/7® assay (Promega) were applied respectively, according to our previous study. These assays were all repeated in triplicate on three separate occasions (n = 3).

[5] = Plasma biochemistry; assay type: in vivo, mice (C57BL/6J)
Protocol: as §1, §2

[6] = 0.025 mg/g, n = 6, 6 h after AOM 10 mg/kg
[7] = 0.05 mg/g, n = 6, 6 h after AOM 10 mg/kg
[8] = 0.1 mg/g, n = 8, 6 h after AOM 10 mg/kg

- IC50 ([1]; Homo sapiens, HT-29, HT29 cells, MTT, 12 h treatment, 1% DMSO): 223 µM and 50 µg/mL
- Albumin [5, 6]: 28.7 ± 1.5 g/L
- Calcium [5, 6]: 2.2 ± 0.1 mmol/L
- Creat. (Creatinine) [5, 6]: 13.3 ± 0.8 µmol/L
- Globulin [5, 6]: 18.0 ± 1.4 g/L
- NA/K (Sodium/Potassium ratio) [5, 6]: 29.1 ± 1.2
- Potassium [5, 6]: 5.1 ± 0.2 mmol/L
- Protein [5, 6]: 46.7 ± 2.8 g/L
- Sodium [5, 6]: 147.7 ± 0.5 mmol/L
- Urea [5, 6]: 9.7 ± 1.6 mmol/L
- Albumin [5, 7]: 27.8 ± 1.5 g/L
- Calcium [5, 7]: 2.2 ± 0.04 mmol/L
- Creat. (Creatinine) [5, 7]: 14.7 ± 0.5 µmol/L
- Globulin [5, 7]: 18.3 ± 0.8 g/L
- NA/K (Sodium/Potassium ratio) [5, 7]: 33.5 ± 2.7
- Potassium [5, 7]: 4.5 ± 0.4 mmol/L
- Protein [5, 7]: 46.2 ± 1.9 g/L
- Sodium [5, 7]: 149.7 ± 1.4 mmol/L
- Urea [5, 7]: 9.9 ± 1.4 mmol/L
- Albumin [5, 8]: 28.2 ± 1.5 g/L
- Calcium [5, 8]: 2.2 ± 0.1 mmol/L
- Creat. (Creatinine) [5, 8]: 14.6 ± 1.2 µmol/L
- Globulin [5, 8]: 17.9 ± 1.2 g/L
- NA/K (Sodium/Potassium ratio) [5, 8]: 34.1 ± 3.6
- Potassium [5, 8]: 4.3 ± 0.4 mmol/L
- Protein [5, 8]: 46.1 ± 2.2 g/L
- Sodium [5, 8]: 149.7 ± 1.2 mmol/L
- Urea [5, 8]: 9.6 ± 1.2 mmol/L
SMILES: O=C1Nc2cc(Br)ccc2C1=O [6-bromoisatin, 6-Bromoindole-2,3-dione]
- reduction of cell viability ([1]; 0.01 mg/mL): no significant reduction
- reduction of cell viability ([1]; 0.025 mg/mL): 26%
- reduction of cell viability ([1]; 0.05 mg/mL): 53%
- reduction of cell viability ([1]; 1 mg/mL): 64%
- stability [2]: stable at low pH
- plasma level of AST, ALT and ALP [3]: No significant difference
- cell morphology ([4]; 112 μM): morphological alterations, such as chromatin condensation, characteristic of the apoptotic process
- cell morphology ([4]; 223 μM): morphological alterations, such as chromatin condensation, characteristic of the apoptotic process
- cell morphology ([4]; 446 μM, in lower numbers than the two other doses): Apoptotic cells were also observed
